Series [1] relates to T1, recombinant human transferrin receptor 1 (TfR1).
T1 construct: extracellular domain (Cyst89-Phe760), (His)6-tagged at the N-terminus; purchased Sino Biological, Beijing, China (TfR1)
In words: BLI of Tf–TfR1 binding in dilute cell culture media after uptake experiments. The note with it: apoTf 30 μM + KP1019 60 μM in DMEM with ~15 μM BSA, vs same medium with apoTf only. Here is the method:
The effects of Ru complexes on the Tf cycle were determined by BLI using previously developed protocols. The instrument used was a single-channel BLItz analyser (ForteBio, Menlo Park, CA, USA) with a tube holder (250 µL solution volume) and Ni(II)–nta coated optical probes held at 295 ± 1 K. Measurements used the Advanced Kinetics mode. […] Solutions of metal–Tf adducts (typical final Tf concentrations 150 nM or 1.0 µM) were prepared in the binding buffer (Section 2.1). The pH 7.4 binding buffer was used for Tf binding and dissociation from the probe, and the pH 5.6 buffer (Section 2.1) was used to mimic the endosomal step of the Tf cycle. Metal–Tf solutions (A1–A9 in Table 1) were diluted 100–400-fold, cell culture media were diluted 30-fold, and human serum samples were diluted 200-fold with the binding buffer immediately before the BLI measurements. All BLI data were background corrected by using data from buffer only runs with the same TfR1-loaded optical probe. Consistent BLI results were obtained in at least two independent measurements, using different probes and different batches of Tf solutions. Calculations of the Tf–TfR1 binding constants were performed using the 1:1 binding model (BLItz software, Version 1.1, Forte-Bio 2013), which can be used as a reasonable approximation of the physiological 2:2 Tf–TfR1 binding mechanism at low Tf concentrations.
(a) BLI response curves for 1.0 µM of human Tf at 295 K in dilute cell culture media after Ru uptake experiments by HepG2 cells (Section 3.2 in the main text). Media (serum-free DMEM, containing 1.0 mg mL−1 BSA as a background protein, as well as KP1019 and/or Tf, as shown in the figure legend), were collected after the end of uptake experiments, then were diluted 30-fold with buffer (20 mM HEPES + 25 mM NaHCO3 + 140 mM NaCl, pH = 7.4) and applied to TfR1-loaded BLI probe. Designations of the steps in Tf cycle (A–D) correspond to those in Figure 1d-f, main text. Calculated KD values (1:1 binding model, BLItz software) were as […]

The subject of series [2] is protein in cell culture medium. In words: Ru–protein binding in cell culture medium (gel filtration, GFAAS). Type of series: in vitro ADME. To be noted: basal medium with ~15 μM BSA, conditions B1 and B2. The method, then:
An aliquot (50 µL) of cell culture medium from each well was passed through a separate Bio-Rad P6 centrifugal gel filtration column that was pre-saturated with PBS, according to manufacturer’s instructions. The eluants (50 ± 5 µL volume) contained protein-bound Ru fractions (>6 kDa molecular mass). The protein recovery, measured by Bradford assays, exceeded 95%. Another 50 µL sample of each medium was taken into separate tubes. Both the original and gel-filtered media samples were digested with 0.20 mL of 65% (v/v) HNO3 for 24 h. The digests were diluted with 0.75 mL of 0.10 M HCl, and the Ru content in the samples was determined by GFAAS. The percentage of protein binding was determined from the ratio of Ru content in the gel-filtered and original media samples [30, 31].
(In gel filtration, larger molecules generally elute earlier.)

Series [3] is described as follows: Decomposition of KP1019 in cell culture medium. The series is classed as in vitro ADME. To be noted: 310 K; reported previously and confirmed in this work.
The conditions of series [4]: cited from earlier work.
The subject of a further series is HepG2 cells. Put plainly: Cellular Ru uptake by HepG2 cells (ICP-MS). The series is classed as cell-based, human. To be noted: HepG2, 60 μM Ru, 24 h; B2 vs B1. The method, then: Human hepatoma (HepG2) cells were originally received from the American Type Culture Collection (ATCC, Cat. No. HB-8065) and cultured as described previously. This cell line was used for Tf-dependent metal uptake studies because of the high expression levels of human TfR1 [43]. For treatments, the cells were grown to confluence in 24-well plates, using Advanced DMEM (Dulbecco’s modified Eagle’s minimal essential medium, Invitrogen Cat. No. 12491-015), supplemented with L-glutamine (2.0 mM), antibiotic-antimycotic mixture (100 mg mL^−1 penicillin, 100 mg mL^−1 steptomycin and 0.25 mg mL^−1 amphotericin B) and fetal calf serum (heat-inactivated, 2% v/v). Confluent cell layers were washed with serum-free treatment medium (DMEM, Invitrogen Cat. No. 19938-025), supplemented with glutamine, antibiotic-antimycotic mixture and 1.0 mg mL^−1 AlbuMax (Gibco Cat. No. 11020-021). […] After washing, the wells were filled with the treatment medium containing metal additions (detailed in B1–B9 of Table 1). The treatment media were sterilized by filtration through 0.2 µm membrane filters, and pre-equilibrated for 24 h at 310 K and 5% CO2 prior to the addition to cells, except for sample B1 that was used immediately after preparation. All the treatments were performed in triplicate, using random well positions to avoid experimental bias.
After 24 h incubation with the treatment media (B1–B9 in Table 1), the medium from each well was collected for the determination of Ru–protein binding and BLI analyses, and the wells were washed twice with PBS (0.50 mL/well). […]
The values of metal uptake were normalized using protein content in cell lysates. For protein determination, Bradford reagent (Sigma Cat. No B6916; 98 µL) was mixed with a small aliquot (2.0 µL) of each cell lysate, and the absorbance at 600 nm was measured using a Victor V3 plate reader. […] The test and calibration samples were analyzed in triplicate. […]

Results on one compound are retold here after paper PMC9496346, “Controversial Role of Transferrin in the Transport of Ruthenium Anticancer Drugs” (Biomolecules, 2022).

Each structure is given as a SMILES string.

For the compound `[Cl-].[Cl-].[Cl-].[Cl-].[Ru+3].c1ccc2[nH][nH+]cc2c1.c1ccc2[nH]ncc2c1.c1ccc2[nH]ncc2c1` [KP1019, (IndH)[Ru^IIICl4(Ind)2]], the “Effect on Tf–TfR1 binding in cell culture medium” value in series [1] was “did not have a major effect”. Besides, the “Protein-bound proportion of KP1019 decomposition products in basal medium” value in series [2] is listed as ~ 50%. Besides, the “Decomposition in cell culture medium (time)” value in series [3] is given as “within several hours”. The “Tf binding of KP1019 decomposition products in blood serum, share of total Ru” value in series [4] (human pharmacokinetic studies) was 1–2%. Further, in series [4] (patients treated with KP1019 in clinical trials), the “Typical peak Ru concentrations in the blood of patients” value was 0.1 to 0.4 mM. Also, the “Decrease in Ru uptake after decomposition in cell culture medium for 24 h prior to addition to cells, vs fresh solution” value in the series with HepG2 cells was ~ 30 fold.
